From patent US6534496B1, “Thermogenic composition and benzazepine thermogenics” (Takeda Chemical Industries, Inc., priority 1997, dated 2003)
Where a name gives a salt, the structure may show the parent alone.

SMILES | melting point
Cc1ccccc1CN1CCc2ccc(C(=O)CCCC3CCN(Cc4ccccc4C(=O)O)CC3)cc2CC1 [Example 253, 2-[[4-[4-[3-[(2-Methylphenyl)methyl]-2,3,4,5-tetrahydro-1H-3-benzazepin-,7-yl]-4-oxobutyl]-1-piperidinyl]methyl)benzoic Acid] | 129 to 132 °C
O=C(CCC1CCN(Cc2ccc(Cl)cc2)CC1)c1ccc2c(c1)CCN(Cc1ccc(F)cc1)CC2 (as salt: hydrochloride) [Example 41, 3-[1-[(4-Chlorophenyl)methyl]-4-piperidinyl]-1-[3-[(4-fluorophenyl)methyl]-2,3,4,5-tetrahydro-1H-3-benzazepin-7-yl]-1-propanone Dihydrochloride] | 219 to 222 °C (dec.)
O=C(CCCC1CCN(Cc2cccc([N+](=O)[O-])c2)CC1)c1ccc2c(c1)CCN(Cc1ccccc1)CC2 (as salt: hydrochloride) [Example 154, 4-[1-[(3-Nitrophenyl)methyl]-4-piperidinyl-1-(3-(phenylmethyl)-2,3,4,5-tetrahydro-1H-3-benzazepin-7-yl]-1-butanone Dihydrochloride] | 239 to 244 °C (dec.)
CS(=O)(=O)Nc1cccc(CN2CCC(CCCC(=O)c3ccc4c(c3)CCN(Cc3ccccc3)CC4)CC2)c1 (as salt: hydrochloride) | 158 to 164 °C
Cc1ccccc1CN1CCC(CCCC(=O)c2ccc3c(c2)CCN(Cc2ccc(F)cc2F)CC3)CC1 (as salt: hydrochloride) | 208 to 210 °C
CCN(CC)CCN1CCc2ccc(C(=O)CCCC3CCN(Cc4ccccc4C)CC3)cc2CC1 (as salt: hydrochloride) [Example 244, 1-[3-(2-Diethyaminoethyl)-2,3,4,5-tetrahydro-1H-3-benzazepin-7-yl]-4-[1-[(2-methylphenyl)methyl]-4-piperidinyl]-1-butanone Trihydrochloride] | 211 to 213 °C
COC(=O)c1ccccc1CN1CCC(CCCC(=O)c2ccc3c(c2)CCN(Cc2ccccc2C)CC3)CC1 (as salt: hydrochloride) | 189 to 192 °C
CC(C)(C)c1ccc(CN2CCC(CCC(=O)c3ccc4c(c3)CCN(Cc3ccc(F)cc3)CC4)CC2)cc1 (as salt: hydrochloride) | 230 to 236 °C (dec.)
COc1cccc(CN2CCC(CCCC(=O)c3ccc4c(c3)CCN(Cc3ccccc3)CC4)CC2)c1 (as salt: hydrochloride) [Example 156, 4-[1-[(3-Methoxyphenyl)methyl]-4-piperidinyl]-1-[3-(phenylmethyl)-2,3,4,5-tetrahydro-1H-3-benzazepin-7-yl]-1-butanone Dihydrochloride] | 215 to 218 °C (dec.)
O=C(O)c1ccc(CN2CCC(CCCC(=O)c3ccc4c(c3)CCN(Cc3ccccc3)CC4)CC2)cc1 [Example 183, 4-[[4-[4-[3-(Phenylmethyl)-2,3,4,5-tetrahydro-1H-3-benzazepin-7-yl]-4-oxobutyl]-1-piperidinyl]methyl]benzoic Acid] | 165 to 176 °C
Cc1ccccc1CN1CCc2ccc(C(=O)CCCC3CCN(Cc4ccccc4Cl)CC3)cc2CC1 (as salt: hydrochloride) | 165 to 168 °C
Cc1ccccc1CN1CCc2ccc(C(=O)CCCC3CCN(Cc4ccccc4C)CC3)cc2CC1 (as salt: hydrochloride) [Example 127, 4-[1-[(2-Methylphenyl)methyl]-4-piperidinyl]-1-[3-[(2-methylphenyl)methyl]-2,3,4,5-tetrahydro-1H-3-benzazepin-7-yl]-1-butanone Dihydrochloride] | 183 to 186 °C
Cc1ccc(CN2CCC(CC(=O)c3ccc4c(c3)CCN(Cc3ccccc3)CC4)CC2)cc1.Cl.Cl | 229 to 233 °C
Cc1ccc(CN2CCc3ccc(C(=O)CCCC4CCN(Cc5ccc(F)cc5)CC4)cc3CC2)cc1 (as salt: hydrochloride) [Example 192, 4-[1-[(4-Fluorophenyl)methyl]-4-piperidinyl]-1-[3-[(4-methylphenyl)methyl]-2,3,4,5-tetrahydro-1H-3-benzazepin-7-yl]-1-butanone Dihydrochloride] | 225 to 228 °C
COC(=O)c1cccc(CN2CCC(CCCC(=O)c3ccc4c(c3)CCN(Cc3ccccc3)CC4)CC2)c1 (as salt: hydrochloride) [Example 152, Methyl 3-[[4-[4-[3-(phenylmethyl)-2,3,4,5-tetrahydro,-1H-3-benzazepin-7-yl]-4-oxobutyl]-1-piperidinyl]methyl]benzoate Dihydrochloride] | 194 to 200 °C
Cc1ccc(CN2CCC(CCCC(=O)c3ccc4c(c3)CCN(Cc3ccc(C#N)cc3)CC4)CC2)cc1.Cl.Cl | 206 to 209 °C (dec.)
O=C(CCC1CCN(Cc2ccccc2F)CC1)c1ccc2c(c1)CN(Cc1ccccc1)CCO2 (as salt: hydrochloride) | 242 to 244 °C
O=C(CCC1CCN(Cc2ccc3c(c2)OCO3)CC1)c1ccc2c(c1)CN(Cc1ccccc1)CCO2 (as salt: hydrochloride) | 233 to 235 °C
O=C(CCC1CCN(Cc2cccc(-c3ccccc3)c2)CC1)c1ccc2c(c1)CN(Cc1ccc(F)cc1)CCO2 (as salt: hydrochloride) [Example 99, 1-[4-[(4-Fluorophenyl)methyl]-2,3,4,5-tetrahydro-1,4-benzoxazepin-7-yl]-3-[1-[(3-phenylphenyl)methyl]-4-piperidinyl]-1-propanone Ddihydrochloride] | 187 to 189 °C
O=C(CCC1CCNCC1)c1ccc2c(c1)CN(Cc1ccc(F)cc1)CCO2 (as salt: hydrochloride) [Example 78, 1-[4-[(4-Fluorophenyl)methyl]-2,3,4,5-tetrahydro-1,4-benzoxazepin-7-yl]-3-(4-piperidinyl)-1-propanone Dihydrochloride] | 173 to 174 °C
Cc1ccccc1CN1CCc2ccc(C(=O)CCCC3CCN(Cc4ccccc4N)CC3)cc2CC1 (as salt: hydrochloride) | 230 to 235 °C

SMILES | melting point
Cc1cccc(CN2CCc3ccc(C(=O)CCCC4CCN(Cc5ccc(F)cc5)CC4)cc3CC2)c1 (as salt: hydrochloride) | 209 to 212 °C
CC(=O)N1CCC(CCC(=O)c2ccc3c(c2)CN(Cc2ccc(F)cc2)CCO3)CC1.Cl | 186 to 188 °C
CC(c1ccccc1)N1CCC(CCC(=O)c2ccc3c(c2)CN(Cc2ccc(F)cc2)CCO3)CC1 (stereo not drawn) (as salt: hydrochloride) | 235 to 237 °C
O=C(CCC1CCN(Cc2ccccc2Cl)CC1)c1ccc2c(c1)CN(Cc1ccc(F)cc1)CCO2 (as salt: hydrochloride) | 227 to 229 °C
O=C(CCC1CCN(Cc2ccc(C(F)(F)F)cc2)CC1)c1ccc2c(c1)CN(Cc1ccccc1)CCO2 (as salt: hydrochloride) | 239 to 241 °C
Cc1ccccc1CN1CCC(CCCC(=O)c2ccc3c(c2)CCNCC3)CC1 (as salt: hydrochloride) [Example 236, 4-[1-[(2-Methylphenyl)methyl]-4-piperidinyl]-1-(2,3,4,5-tetrahydro-1H-3-benzazepin-7-yl)-1-butanone Dihydrochloride] | 213 to 216 °C (dec.)
COc1ccc(CN2CCc3ccc(C(=O)CCC4CCN(Cc5ccc(C(C)(C)C)cc5)CC4)cc3CC2)cc1 (as salt: hydrochloride) [Example 93, 1-[3-[(4-methbyphenyl)methyl]-2,3,4,5-tetrahydro-1H-3-benzazepin-7-yl]3-[1-[[4-(tert-butyl)phenyl]methyl]-4-piperidinyl]-1-propanone Dihydrochloride] | 241 to 244 °C (dec.)
Cc1ccccc1CN1CCc2ccc(C(=O)CCCC3CCN(Cc4ccccc4)CC3)cc2CC1 (as salt: hydrochloride) [Example 129, 1-[3-[(2-Methylphenyl)methyl]-2,3,4,5-tetrahydro-1H-3-benzazepin-7-yl]-4-[1-(phenylmethyl)-4-piperidinyl]-1-butanone Dihydrochloride] | 191 to 194 °C
O=C(CCC1CCN(Cc2cc(F)cc(F)c2)CC1)c1ccc2c(c1)CN(Cc1ccccc1)CCO2 (as salt: hydrochloride) | 241 to 243 °C
Cc1ccccc1CN1CCc2ccc(C(=O)CCCC3CCN(Cc4ccccc4C(N)=O)CC3)cc2CC1 (as salt: hydrochloride) [Example 254, 2-[[4-[4-[3-[(2-Methylphenyl)methyl]-2,3,4,5-tetrahydro-1H-3-benzazepin-7-yl]-4-oxobutyl]-1-piperidinyl]methyl]benzamide Dihydrochloride] | 201 to 220 °C (dec.)
O=C(CCC1CCN(Cc2cccnc2)CC1)c1ccc2c(c1)CN(Cc1ccccc1)CCO2 (as salt: hydrochloride) | 228 to 230 °C
COc1ccc(CN2CCc3ccc(C(=O)CCC4CCN(Cc5ccc(F)cc5)CC4)cc3CC2)cc1 (as salt: hydrochloride) | 218 to 226 °C (dec.)
O=C(CCC1CCN(Cc2ccccn2)CC1)c1ccc2c(c1)CN(Cc1ccccc1)CCO2 (as salt: hydrochloride) | 238 to 240 °C
O=C(CCCC1CCN(Cc2ccccc2Cl)CC1)c1ccc2c(c1)CCN(Cc1ccc(F)cc1F)CC2 (as salt: hydrochloride) | 193 to 196 °C
COC(=O)c1ccc(CN2CCC(CCCC(=O)c3ccc4c(c3)CCN(Cc3ccccc3)CC4)CC2)cc1 (as salt: hydrochloride) | 239 to 244 °C (dec.)
COc1ccc(CN2CCC(CCC(=O)c3ccc4c(c3)CCN(Cc3ccc(F)cc3)CC4)CC2)cc1 (as salt: hydrochloride) | 235 to 238 °C (dec.)
COc1ccc(CN2CCc3ccc(C(=O)CCC4CCN(Cc5ccc(-c6ccccc6)cc5)CC4)cc3CC2)cc1 (as salt: hydrochloride) | 220 to 225 °C (dec.)
Cc1ccc(CN2CCC(CCCC(=O)c3ccc4c(c3)CCN(Cc3cccc([N+](=O)[O-])c3)CC4)CC2)cc1 (as salt: hydrochloride) | 172 to 174 °C
Cc1ccc(CN2CCC(CCC(=O)c3ccc4c(c3)CN(Cc3ccccc3)CCO4)CC2)cc1 (as salt: hydrochloride) | 236 to 238 °C
Cc1ccccc1CN1CCc2ccc(C(=O)CCCC3CCN(Cc4cccc(Cl)c4)CC3)cc2CC1 (as salt: hydrochloride) [Example 130] | 180 to 183 °C
COC(=O)c1ccccc1CN1CCc2ccc(C(=O)CCCC3CCN(Cc4ccccc4C)CC3)cc2CC1 (as salt: hydrochloride) | 111 to 113 °C
